Patent US20250248933A1, “Prophylactic and Therapeutic Agents for Upper Respiratory Tract Infections Caused by Influenza and Other Enveloped Viruses” (priority 2020, published 2025)

What was measured:
[1] = in vivo; cited from earlier work
[2] = tested on: rhinovirus; conditions: cited from earlier work
[3] = tested on: common cold germs; conditions: cited from earlier work
[4] = tested on: influenza viruses; conditions: determined by the present inventor
[5] = tested on: common colds; conditions: 37 zinc-treated subjects; cited from earlier work
[6] = tested on: rhinoviruses; conditions: cited from earlier work

CCCc1cc(=O)oc2c3c(c4c(c12)OC(C)(C)C=C4)O[C@H](C)[C@@H](C)[C@@H]3O [Calanolide A]
safety and tolerability [1]: safe and well tolerated

CCO [Ethanol, ethanol]
activity against rhinovirus [2]: works well
killing of common cold germs in oral mucosa [3]: known to kill
ability to kill influenza viruses [4]: ineffective

zinc
subjects asymptomatic after seven days [5]: 86%
inhibition of replication of rhinoviruses [6]: inhibit the replication
